According to patent US20070010527A1, “4-Anilino-3-quinolinecarbonitriles for the treatment of cancer” (priority 2005, published 2007):

Tests used:
[1] = target: CAMKII; experiment: CAMKII kinase ELISA; assay type: biochemical
Experimental: Assay Dilution Buffer (ADB): 20 mM MOPS, pH 7.2, 25 mM β-glycerol phosphate, 5 mM EGTA, 1 mM sodium orthovanadate, 1 mM dithiothreitol. 2. […] 3. […] 4. […] 5. […] 3. […] 4. […] 5. […] 6. […] 7.

[2] = tested on: RPMI-7951 melanoma cells; experiment: Proliferation assay, SRB; assay type: cell-based; details: Homo sapiens, RPMI-7951, 96 h, day 4
Experimental: (§1) For the experiments described in Table 3, 1000 cells were plated in each well of a 96 well cell culture dish on day 0 in the standard growth medium for that particular cell line. Compound was added on day 1. Relative cell number was determined on day 4.
(§2) The sulforhodamine B (SRB) assay was used for certain melanoma lines. In this assay, the serum concentration in the growth medium was 5% and culture medium volume was 0.2 ml. On day 4, 0.05 ml of 50% trichloroacetic acid was added to the medium and the plate was allowed to sit at room temperature for 1 hour. The medium was decanted and the plate was washed 3 times with water. The washed plates were dried, and then 0.08 ml of SRB reagent (SRB was obtained from Sigma; 0.4% SRB in 1% acetic acid) was added. After 10 minutes at room temperature, the plates were washed with 1% acetic acid until no free red color remained in solution. The bound SRB reagent was solubilized with 0.15 ml 10 mM Tris (no acid added). After agitating for 5 minutes on a shaker, the absorbance was read at 540 nm.

[3] = tested on: A375 melanoma cells; experiment: Proliferation assay, SRB; assay type: cell-based; details: Homo sapiens, A-375, 96 h, day 4
Experimental: as §1, §2

[4] = tested on: HS-294-T melanoma cells; experiment: Proliferation assay, SRB; assay type: cell-based; details: Homo sapiens, 96 h, day 4
Experimental: as §1, §2

[5] = tested on: HN5 head and neck tumor line; experiment: Phosphorylation of downstream proteins in EGF-stimulated HN5 cells; assay type: cell-based; details: serum-starved HN5 cells, compound 4 hours, then EGF 50 ng/ml ten minutes
Experimental: FIG. 1. […] Serum-starved HN5 cells were treated with the compound for 4 hours, after which EGF was added to 50 ng/ml for ten minutes. Lysates were analyzed for Stat3 Y705, c-Cbl Y731 and Y774 and caveolin Y14 phosphorylation.

[6] = tested on: DU145 prostate tumor cells; experiment: Proliferation assay, CellTiter-Glo; assay type: cell-based; details: Homo sapiens, DU-145, 96 h, Cell-glo, day 4
Experimental: as §1
(§3) The CellTiter-Glo luminescent cell viability assay (Promega #G7573) was used where cells were lysed with the CellTiter Glo reagent, agitated briefly and allowed to sit at room temperature for 30 minutes prior to analyzing on a Wallac plate reader equipped for luminescence readings.

[7] = tested on: HN5 head and neck tumor cells; experiment: Proliferation assay, CellTiter-Glo; assay type: cell-based; details: 96 h, Cell-glo, day 4
Experimental: as §1, §3

[8] = tested on: BxPC3 pancreatic tumor cells; experiment: Proliferation assay, CellTiter-Glo; assay type: cell-based; details: Homo sapiens, BXPC-3, 96 h, Cell-glo, day 4
Experimental: as §1, §3

[9] = tested on: MiaPaca pancreatic tumor cells; experiment: Proliferation assay, CellTiter-Glo; assay type: cell-based; details: Homo sapiens, MIA PaCa-2, 96 h, Cell-glo, day 4
Experimental: as §1, §3

[10] = tested on: Capan pancreatic tumor cells; experiment: Proliferation assay, CellTiter-Glo; assay type: cell-based; details: 96 h, Cell-glo, day 4
Experimental: as §1, §3

[11] = tested on: LnCap prostate tumor cells; experiment: Proliferation assay, CellTiter-Glo; assay type: cell-based; details: Homo sapiens, 96 h, Cell-glo, day 4
Experimental: as §1, §3

[12] = tested on: A375 melanoma cells; experiment: Proliferation assay, CellTiter-Glo; assay type: cell-based; details: Homo sapiens, A-375, 96 h, Cell-glo, day 4
Experimental: as §1, §3

[13] = tested on: HSB-2 T-cell leukemia cells; experiment: Proliferation assay, MTS; assay type: cell-based; details: HSB2, 96 h, day 4
Experimental: as §1
(§4) Some assays were monitored with the aid of the CellTiter 96 assay (Promega #G3580). With this assay, on day 4, detection reagent was added to the 96 well plate and absorbance at 490 nm was measured.

[14] = tested on: Molt-4 T-cell leukemia cells; experiment: Proliferation assay, MTS; assay type: cell-based; details: Homo sapiens, MOLT-4, 96 h, day 4
Experimental: as §1, §4

[15] = tested on: A375 melanoma subcutaneous tumor xenografts; experiment: A375 melanoma subcutaneous tumor xenograft in nude mice; assay type: in vivo; details: 30 mg/kg bid ip 9 days, day 12
Experimental: All animal studies were conducted under an approved Institutional Animal Care and Use Committee protocol. Tumor cells were suspended to 50 million cells/ml and 0.2 ml of the cell suspension was injected subcutaneously into a flank of 6-7 weeks old female nude mice (Charles River, Wilmington, Mass.). Mice with tumors larger than 200 mm^3 after one week were administered vehicle or compound by intraperitoneal injection at the indicated doses in 0.2 ml of vehicle containing 0.5% methylcellulose and 0.4% polysorbate 80 (Tween 80).

[16] = target: T1, PKA (Bos taurus, UniProt P00517); experiment: PKA Scintiplate kinase assay; assay type: biochemical
T1 construct: purchased Upstate 14-114
Excerpt: PKA, PKC, S6 kinase, CAMKII and p38 kinase assays.

**Q.** For `COc1cc(Nc2c(C#N)cnc3cc(OCCCN4CCN(C)CC4)c(OC)cc23)c(Cl)cc1Cl` [4-(2,4-dichloro-5-methoxy-phenylamino)-6-methoxy-7-[3-(4-methyl-piperazin-1-yl)-propoxy]-quinoline-3-carbonitrile], which IC50 [1] is on record?
**A.** Its IC50 is 6.25 µM.

**Q.** And the IC50 [2]?
**A.** Its IC50 is 1.2 µM.

**Q.** And the IC50 [3]?
**A.** The IC50 was 0.9 µM.

**Q.** What about the IC50 [4] of the same molecule?
**A.** Its IC50 is 0.6 µM.

**Q.** What about the “phosphorylation of Y705 of Stat3” value [5] of the same molecule?
**A.** The value was “reduced”.

**Q.** What about the “phosphorylation of c-Cbl Y731” value [5] of the same molecule?
**A.** The value was “reduced”.

**Q.** What about the “phosphorylation of caveolin Y14” value [5] of the same molecule?
**A.** The value was “reduced”.

**Q.** And the IC50 [6]?
**A.** The IC50 was 1.6 µM.

**Q.** What about the IC50 [7] of the same molecule?
**A.** The IC50 was 0.3 µM.

**Q.** And the IC50 [8]?
**A.** Its IC50 is 3.9 µM.

**Q.** And the IC50 [9]?
**A.** Its IC50 is 1.3 µM.

**Q.** And the IC50 [10]?
**A.** The IC50 was 5.9 µM.

**Q.** What about the IC50 [11] of the same molecule?
**A.** The IC50 was 3.5 µM.

**Q.** And the IC50 [12]?
**A.** The IC50 was 1.2 µM.

**Q.** And the IC50 [13]?
**A.** Its IC50 is 0.014 µM.

**Q.** And the IC50 [14]?
**A.** The IC50 was 8.2 µM.

**Q.** And the T/C [15]?
**A.** Its T/C is 39%, day 12.

**Q.** And the IC50 [16]?
**A.** Its IC50 is 5.03 µM.
